Results reported in patent US20170226483A1, “Methods and Vectors to Produce Vector Free Induced Pluripotent Stem Cells” (Lonza Walkersville, Inc., priority 2016, published 2017).

Key:
[1] = system: hiPSC that do not express the respective suicide gene; experiment: Cytotoxic effect of the suicide gene substrate on hPSCs that do not express the suicide gene (alkaline phosphatase staining); format: cell-based, human; settings: 48 hours
Description: Cell were fixed and stained for alkaline phosphatase activity after 48 hr. […] Additional experiments will determine the required levels of ganciclovir and 5-FC in hiPSCs that express the suicide gene, to determine the minimum concentration required.

[2] = system: BALB/c murine K3T3 sarcoma cell lines with herpes simplex virus thymidine kinase gene; settings: K3T3 sarcoma cell lines carrying HSV thymidine kinase gene; cited from earlier work
K3T3 sarcoma tumors = settings: BALB/c mice bearing K3T3 sarcoma tumors produced by the cell lines; cited from earlier work

| Compound | cytotoxic effect on hiPSCs ([1]; 5-FC 1, 10 and 100 μM) | cytotoxic effect on hiPSCs ([1]; ganciclovir 0.2, 2 or 20 μM) | effect on tumor cells in vitro [2] | effect on tumors in vivo (K3T3 sarcoma tumors) |
| --- | --- | --- | --- | --- |
| Nc1nc(=O)[nH]cc1F [Vector 5-FC, 5-Flurocytosine] | no cytotoxic effect |  |  |  |
| Nc1nc(O)c2ncn(COC(CO)CO)c2n1 [ganciclovir, Ganciclovir] |  | no cytotoxic effect | destruction of the tumor cells | destruction of the tumors |
